The values that follow come from US7256007B2, “Methods of regulating cytokine signalling” (The Walter and Eliza Hall Institute of Medical Research, priority 2000, dated 2007).

What is called IC50 is the concentration needed to halve the response being measured.

T1: SOCS-3 (Mus musculus, UniProt O35718)
T1 construct: hexahistidine (pET15b) (N); made in house; host or cells: E. coli BL21 DE3 pLysS
T1 sequence (O35718 1-225): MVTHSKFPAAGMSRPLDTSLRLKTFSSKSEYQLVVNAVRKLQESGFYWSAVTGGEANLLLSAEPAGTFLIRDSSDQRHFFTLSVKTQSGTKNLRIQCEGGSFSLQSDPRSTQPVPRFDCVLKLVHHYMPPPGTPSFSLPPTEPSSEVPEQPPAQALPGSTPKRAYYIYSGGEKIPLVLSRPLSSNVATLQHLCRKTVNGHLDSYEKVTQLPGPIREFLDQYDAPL

T2: SOCS-3 (recombinant, His-tagged) (mouse, UniProt O35718)
T2 chain: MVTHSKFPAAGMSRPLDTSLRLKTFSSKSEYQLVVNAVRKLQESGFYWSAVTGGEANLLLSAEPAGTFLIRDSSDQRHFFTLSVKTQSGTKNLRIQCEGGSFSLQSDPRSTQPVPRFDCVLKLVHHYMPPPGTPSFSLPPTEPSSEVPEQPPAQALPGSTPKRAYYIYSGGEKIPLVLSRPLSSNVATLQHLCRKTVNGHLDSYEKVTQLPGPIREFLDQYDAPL

B1: Ac(pY)STVVHSG (peptide)
chain: Ac-[pY]STVVHSG-NH2
SMILES: CC(=O)N[C@@H](Cc1ccc(OP(=O)(O)O)cc1)C(=O)N[C@@H](CO)C(=O)N[C@H](C(=O)N[C@H](C(=O)N[C@H](C(=O)N[C@@H](Cc1c[nH]cn1)C(=O)N[C@@H](CO)C(=O)NCC(N)=O)C(C)C)C(C)C)[C@@H](C)O
B2: AcVA(pY)STVVHSG (peptide)
chain: Ac-VA[pY]STVVHSG-NH2
SMILES: CC(=O)N[C@H](C(=O)N[C@@H](C)C(=O)N[C@@H](Cc1ccc(OP(=O)(O)O)cc1)C(=O)N[C@@H](CO)C(=O)N[C@H](C(=O)N[C@H](C(=O)N[C@H](C(=O)N[C@@H](Cc1c[nH]cn1)C(=O)N[C@@H](CO)C(=O)NCC(N)=O)C(C)C)C(C)C)[C@@H](C)O)C(C)C
B3: gp130 phosphopeptide V12A (peptide)
chain: STASTVE[pY]STVAHSG-NH2
modifications: N-terminus assumed
SMILES: CC(C)[C@H](NC(=O)[C@@H](NC(=O)[C@H](CO)NC(=O)[C@H](Cc1ccc(OP(=O)(O)O)cc1)NC(=O)[C@H](CCC(=O)O)NC(=O)[C@@H](NC(=O)[C@@H](NC(=O)[C@H](CO)NC(=O)[C@H](C)NC(=O)[C@@H](NC(=O)[C@@H](N)CO)[C@@H](C)O)[C@@H](C)O)C(C)C)[C@@H](C)O)C(=O)N[C@@H](C)C(=O)N[C@@H](Cc1c[nH]cn1)C(=O)N[C@@H](CO)C(=O)NCC(N)=O
B4: AcE(pY)STVVHSG (peptide)
chain: Ac-E[pY]STVVHSG-NH2
SMILES: CC(=O)N[C@@H](CCC(=O)O)C(=O)N[C@@H](Cc1ccc(OP(=O)(O)O)cc1)C(=O)N[C@@H](CO)C(=O)N[C@H](C(=O)N[C@H](C(=O)N[C@H](C(=O)N[C@@H](Cc1c[nH]cn1)C(=O)N[C@@H](CO)C(=O)NCC(N)=O)C(C)C)C(C)C)[C@@H](C)O
B5: gp130 phosphopeptide H13A (peptide)
chain: STASTVE[pY]STVVASG-NH2
modifications: N-terminus assumed
SMILES: CC(C)[C@H](NC(=O)[C@@H](NC(=O)[C@@H](NC(=O)[C@H](CO)NC(=O)[C@H](Cc1ccc(OP(=O)(O)O)cc1)NC(=O)[C@H](CCC(=O)O)NC(=O)[C@@H](NC(=O)[C@@H](NC(=O)[C@H](CO)NC(=O)[C@H](C)NC(=O)[C@@H](NC(=O)[C@@H](N)CO)[C@@H](C)O)[C@@H](C)O)C(C)C)[C@@H](C)O)C(C)C)C(=O)N[C@@H](C)C(=O)N[C@@H](CO)C(=O)NCC(N)=O
B6: AcTVE(pY)STVVHSG (peptide)
chain: Ac-TVE[pY]STVVHSG-NH2
SMILES: CC(=O)N[C@H](C(=O)N[C@H](C(=O)N[C@@H](CCC(=O)O)C(=O)N[C@@H](Cc1ccc(OP(=O)(O)O)cc1)C(=O)N[C@@H](CO)C(=O)N[C@H](C(=O)N[C@H](C(=O)N[C@H](C(=O)N[C@@H](Cc1c[nH]cn1)C(=O)N[C@@H](CO)C(=O)NCC(N)=O)C(C)C)C(C)C)[C@@H](C)O)C(C)C)[C@@H](C)O

Square brackets hold non-standard residues; d marks the D form. Ends that are not written are not given here. Peptide text beside a SMILES is read from it. pY = N[C@@H](Cc1ccc(OP(=O)(O)O)cc1)C(=O)O

The target in one test is T1, SOCS-3. Kind of test: Competitive binding assay on the Biosensor: soluble peptide displaces SOCS-3 from immobilized gp130 (750-764) phosphopeptide. Further details: species or system murine. To be noted: IC50, Table 2, gp130(750-764) phosphopeptide and analogues. Here is the method: Purified protein was refolded by dialysis into PBS containing 2 mM DTT, 2 mM EDTA and 0.02% v/v Tween 20. Refolded material was purified to homogeneity by ion exchange chromatography on a Mono S column (Pharmacia).
Samples were left overnight at 4° C. prior to analysis on the Biosensor so that the rate of protein loss due to absorption was minimal through the course of the experiment.
The inventors also used this competition assay to reassess the potential solution binding of the phosphopeptides listed in FIG. 1A.
`CC(C)[C@H](NC(=O)[C@@H](NC(=O)[C@H](CO)NC(=O)[C@H](Cc1ccc(OP(=O)(O)O)cc1)NC(=O)[C@H](CCC(=O)O)NC(=O)[C@@H](NC(=O)[C@@H](NC(=O)[C@H](CO)NC(=O)[C@H](C)NC(=O)[C@@H](NC(=O)[C@@H](N)CO)[C@@H](C)O)[C@@H](C)O)C(C)C)[C@@H](C)O)C(=O)N[C@@H](C)C(=O)N[C@@H](Cc1c[nH]cn1)C(=O)N[C@@H](CO)C(=O)NCC(N)=O` [STASTVE(pY)STVAHSG] (H-STASTVE[pY]STVAHSG-NH2; N-terminus assumed) yielded an IC50 of 1100 nM.
`CC(C)[C@H](NC(=O)[C@@H](NC(=O)[C@@H](NC(=O)[C@H](CO)NC(=O)[C@H](Cc1ccc(OP(=O)(O)O)cc1)NC(=O)[C@H](CCC(=O)O)NC(=O)[C@@H](NC(=O)[C@@H](NC(=O)[C@H](CO)NC(=O)[C@H](C)NC(=O)[C@@H](NC(=O)[C@@H](N)CO)[C@@H](C)O)[C@@H](C)O)C(C)C)[C@@H](C)O)C(C)C)C(N)=O` [STASTVE(pY)STVV] (H-STASTVE[pY]STVV-NH2; N-terminus assumed): the concentration for half-maximal inhibition (IC50) amounted to 1100 nM.

The same test, now with this note: relative to gp130 (750-764) parent phosphopeptide.
`CC(C)[C@H](NC(=O)[C@@H](NC(=O)[C@@H](NC(=O)[C@H](CO)NC(=O)[C@H](Cc1ccc(OP(=O)(O)O)cc1)NC(=O)[C@H](CCC(=O)O)NC(=O)[C@@H](NC(=O)[C@@H](NC(=O)[C@H](CO)NC(=O)[C@H](C)NC(=O)[C@@H](NC(=O)[C@@H](N)CO)[C@@H](C)O)[C@@H](C)O)C(C)C)[C@@H](C)O)C(C)C)C(=O)N[C@@H](Cc1c[nH]cn1)C(=O)N[C@@H](CO)C(N)=O` [STASTVE(pY)STVVHS]: the “IC50 analogue/IC50 wild-type” value stood at 0.55.
Turning to `CC(C)[C@H](NC(=O)[C@@H](NC(=O)[C@H](CO)NC(=O)[C@H](Cc1ccc(OP(=O)(O)O)cc1)NC(=O)[C@H](CCC(=O)O)NC(=O)[C@@H](NC(=O)[C@@H](NC(=O)[C@H](CO)NC(=O)[C@H](C)NC(=O)[C@@H](NC(=O)[C@@H](N)CO)[C@@H](C)O)[C@@H](C)O)C(C)C)[C@@H](C)O)C(=O)N[C@@H](C)C(=O)N[C@@H](Cc1c[nH]cn1)C(=O)N[C@@H](CO)C(=O)NCC(N)=O` [STASTVE(pY)STVAHSG] (H-STASTVE[pY]STVAHSG-NH2; N-terminus assumed), the “IC50 analogue/IC50 wild-type” value came out at 10.
Same read-out and setting: the same measure for `CC(=O)N[C@H](C(=O)N[C@@H](C)C(=O)N[C@@H](Cc1ccc(OP(=O)(O)O)cc1)C(=O)N[C@@H](CO)C(=O)N[C@H](C(=O)N[C@H](C(=O)N[C@H](C(=O)N[C@@H](Cc1c[nH]cn1)C(=O)N[C@@H](CO)C(=O)NCC(N)=O)C(C)C)C(C)C)[C@@H](C)O)C(C)C` [AcVA(pY)STVVHSG] (Ac-VA[pY]STVVHSG-NH2): 5.0.
On the same count and under the same terms, the same measure for `CC(C)[C@H](NC(=O)[C@@H](NC(=O)[C@@H](NC(=O)[C@H](CO)NC(=O)[C@H](Cc1ccc(OP(=O)(O)O)cc1)NC(=O)[C@H](CCC(=O)O)NC(=O)[C@@H](NC(=O)[C@@H](NC(=O)[C@H](CO)NC(=O)[C@H](C)NC(=O)[C@@H](NC(=O)[C@@H](N)CO)[C@@H](C)O)[C@@H](C)O)C(C)C)[C@@H](C)O)C(C)C)C(N)=O` [STASTVE(pY)STVV] (H-STASTVE[pY]STVV-NH2; N-terminus assumed): 10; for `CC(C)[C@H](NC(=O)[C@@H](NC(=O)[C@@H](NC(=O)[C@H](CO)NC(=O)[C@H](Cc1ccc(OP(=O)(O)O)cc1)NC(=O)[C@H](CCC(=O)O)NC(=O)[C@@H](NC(=O)[C@@H](NC(=O)[C@H](CO)NC(=O)[C@H](C)NC(=O)[C@@H](NC(=O)[C@@H](N)CO)[C@@H](C)O)[C@@H](C)O)C(C)C)[C@@H](C)O)C(C)C)C(=O)N[C@@H](C)C(=O)N[C@@H](CO)C(=O)NCC(N)=O` [STASTVE(pY)STVVASG] (H-STASTVE[pY]STVVASG-NH2; N-terminus assumed): 7.0; for `CC(C)[C@H](NC(=O)[C@H](C)NC(=O)[C@@H](NC(=O)[C@H](CO)NC(=O)[C@H](Cc1ccc(OP(=O)(O)O)cc1)NC(=O)[C@H](CCC(=O)O)NC(=O)[C@@H](NC(=O)[C@@H](NC(=O)[C@H](CO)NC(=O)[C@H](C)NC(=O)[C@@H](NC(=O)[C@@H](N)CO)[C@@H](C)O)[C@@H](C)O)C(C)C)[C@@H](C)O)C(=O)N[C@@H](Cc1c[nH]cn1)C(=O)N[C@@H](CO)C(=O)NCC(N)=O` [STASTVE(pY)STAVHSG] (H-STASTVE[pY]STAVHSG-NH2; N-terminus assumed): 31.
Consider `CC(C)[C@H](NC(=O)[C@@H](NC(=O)[C@@H](NC(=O)[C@H](C)NC(=O)[C@H](Cc1ccc(OP(=O)(O)O)cc1)NC(=O)[C@H](CCC(=O)O)NC(=O)[C@@H](NC(=O)[C@@H](NC(=O)[C@H](CO)NC(=O)[C@H](C)NC(=O)[C@@H](NC(=O)[C@@H](N)CO)[C@@H](C)O)[C@@H](C)O)C(C)C)[C@@H](C)O)C(C)C)C(=O)N[C@@H](Cc1c[nH]cn1)C(=O)N[C@@H](CO)C(=O)NCC(N)=O` [STASTVE(pY)ATVVHSG] (H-STASTVE[pY]ATVVHSG-NH2; N-terminus assumed), for which the “IC50 analogue/IC50 wild-type” value is 0.65.
Regarding `CC(=O)N[C@@H](C)C(=O)N[C@@H](CCC(=O)O)C(=O)N[C@@H](Cc1ccc(OP(=O)(O)O)cc1)C(=O)N[C@@H](CO)C(=O)N[C@H](C(=O)N[C@H](C(=O)N[C@H](C(=O)N[C@@H](Cc1c[nH]cn1)C(=O)N[C@@H](CO)C(=O)NCC(N)=O)C(C)C)C(C)C)[C@@H](C)O` [AcAE(pY)STVVHSG] (Ac-AE[pY]STVVHSG-NH2), the “IC50 analogue/IC50 wild-type” value is given as 5.3.
The same measure, in the same setting: under `CC(=O)N[C@@H](CCC(=O)O)C(=O)N[C@@H](Cc1ccc(OP(=O)(O)O)cc1)C(=O)N[C@@H](CO)C(=O)N[C@H](C(=O)N[C@H](C(=O)N[C@H](C(=O)N[C@@H](Cc1c[nH]cn1)C(=O)N[C@@H](CO)C(=O)NCC(N)=O)C(C)C)C(C)C)[C@@H](C)O` [AcE(pY)STVVHSG] (Ac-E[pY]STVVHSG-NH2) stands 8.8; under `CC(=O)N[C@@H](Cc1ccc(OP(=O)(O)O)cc1)C(=O)N[C@@H](CO)C(=O)N[C@H](C(=O)N[C@H](C(=O)N[C@H](C(=O)N[C@@H](Cc1c[nH]cn1)C(=O)N[C@@H](CO)C(=O)NCC(N)=O)C(C)C)C(C)C)[C@@H](C)O` [Ac(pY)STVVHSG] (Ac-[pY]STVVHSG-NH2), 87.
On the same count and under the same terms, the same measure for `CC(=O)N[C@H](C(=O)N[C@H](C(=O)N[C@@H](CCC(=O)O)C(=O)N[C@@H](Cc1ccc(OP(=O)(O)O)cc1)C(=O)N[C@@H](CO)C(=O)N[C@H](C(=O)N[C@H](C(=O)N[C@H](C(=O)N[C@@H](Cc1c[nH]cn1)C(=O)N[C@@H](CO)C(=O)NCC(N)=O)C(C)C)C(C)C)[C@@H](C)O)C(C)C)[C@@H](C)O` [AcTVE(pY)STVVHSG]: 1.1; for `CC(C)[C@H](NC(=O)[C@@H](NC(=O)[C@@H](NC(=O)[C@H](CO)NC(=O)[C@H](Cc1ccc(OP(=O)(O)O)cc1)NC(=O)[C@H](CCC(=O)O)NC(=O)[C@@H](NC(=O)[C@@H](NC(=O)[C@H](CO)NC(=O)[C@H](C)NC(=O)[C@@H](NC(=O)[C@@H](N)CO)[C@@H](C)O)[C@@H](C)O)C(C)C)[C@@H](C)O)C(C)C)C(=O)N[C@@H](Cc1c[nH]cn1)C(N)=O` [STASTVE(pY)STVVH] (H-STASTVE[pY]STVVH-NH2; N-terminus assumed): 0.70.

The target of a further test is T2, SOCS-3 (recombinant, His-tagged). Kind of test: competition, SPR.
Details: not given
On to B1, for which the IC50 stood at 9600 nM.
As for B2, the half-maximal inhibitory concentration (IC50) came out at 550 nM.
Turning to B3, the half-maximal inhibitory concentration (IC50) worked out at 1100 nM.
Same read-out and setting: the same measure for B4: 970 nM; for B5: 770 nM; for B6: 120 nM.
